Values of other authors in PubChem BioAssay AID1259409 (Chemical Carcinogenesis Research Information System (CCRIS), 2018).

Test system: rodent chemically induced tumor inhibition, incidence and multiplicity
Test: CCRIS tumor inhibitor studies

Q: What does the source list for `CSCC[C@H](N)C(=O)O`?
A: tumour outcome (control, treated, inhibition, significance) (Carcinogen: 7,12-DIMETHYLBENZ[A]ANTHRACENE, 57-97-6, Dose [Inhibitor]: 0.06 MMOL/G DIET DAILY FOR 17 WK STARTING 1 WK PRIOR TO CARCINOGEN TREATMENT AND CONTINUING THROUGH THE END OF THE STUDY, Route [Inhibitor]: ORAL, Species: RAT, Strain/Sex: SPRAGUE-DAWLEY/FEMALE, Target Tissue: Type of Lesion: MAMMARY GLAND: TUMOR, Dose [Carcinogen]: 12 MG IN 1 ML OLIVE OIL ONCE, Promoter: NONE USED): 59%, 72%, -22%, not calculated; tumour outcome (control, treated, inhibition, significance) (Carcinogen: N-METHYL-N'-NITRO-N-NITROSOGUANADINE, 70-25-7, Dose [Inhibitor]: 0, 150 MG/KG BW 1/2 D FOR 26 WK BEGINNING POST CARCINOGEN TREATMENT (STUDY DURATION: 52 WK), Route [Inhibitor]: SUBCUTANEOUS, Species: RAT, Strain/Sex: WISTAR/MALE, Target Tissue: Type of Lesion: STOMACH: ADENOCARCINOMA, Dose [Carcinogen]: 25 UG/ML IN DRINKING WATER FOR 25 WK, Promoter: AMMONIUM ACETATE, 631-61-8, SODIUM HYPOCHLORITE, 7681-52-9, Promoter: AMMONIUM ACETATE, 631-61-8, SODIUM HYPOCHLORITE, 7681-52-9): 19/19 (100%), 9/18 (50%), 50%, p<0.01; tumour outcome (control, treated, inhibition, significance) (Carcinogen: N-NITROSOBIS(2-OXOPROPYL)AMINE [60559-38-4], Dose [Inhibitor]: 2% IN DIET FOR 27 WK BEGINNING IMMEDIATELY POST LAST CARCINOGEN DOSE (STUDY DURATION: 32 WK), Route [Inhibitor]: ORAL, Species: HAMSTER, Strain/Sex: SYRIAN/FEMALE, Target Tissue: Type of Lesion: PANCREAS: ADENOCARCINOMA, Dose [Carcinogen]: 10 MG/KG BW 1X/WK FOR 5 WK (STUDY DURATION: 32 WK), Promoter: NONE): 20/28 (71.4%), 7/19 (36.8%), 48%, p<0.05

Q: Which results are given for `O=C(O)/C=C/C(=O)O`?
A: tumour outcome (control, treated, inhibition, significance) (Carcinogen: 3'-METHYL-4-DIMETHYLAMINOAZOBENZENE, 55-80-1, Dose [Inhibitor]: 1% IN DIET AND 0.025% IN DRINKING WATER CONCOMITANTLY FOR 51 WK STARTING AT COMPLETION OF CARCINOGEN TREATMENT (STUDY DU, Route [Inhibitor]: ORAL, Species: RAT, Strain/Sex: DONRYU/MALE, Target Tissue: Type of Lesion: LIVER: CARCINOMA, Dose [Carcinogen]: 0.06% IN DIET FOR 50 D, Promoter: NONE USED): 11/13 (85%), 2/15 (13%), 85%, p<0.0002; tumour outcome (control, treated, inhibition, significance) (Carcinogen: 4-(METHYLNITROSAMINO)-1-(3-PYRIDYL)-1-BUTANONE [64091-50-5], Dose [Inhibitor]: 80 MMOL/KG IN DIET FOR 17 WK BEGINNING 1 WK PRIOR TO FIRST CARCINOGEN DOSE (STUDY DURATION: 17 WK), Route [Inhibitor]: ORAL, Species: MOUSE, Strain/Sex: A/J/FEMALE, Target Tissue: Type of Lesion: LUNG: ADENOMA, Dose [Carcinogen]: 10 UMOL ONCE 1 WK POST FIRST INHIBITOR DOSE (STUDY DURATION: 17 WK), Promoter: NONE): 100%, 100%, 0%, not significant; tumour outcome (control, treated, inhibition, significance) (Carcinogen: 4-(METHYLNITROSAMINO)-1-(3-PYRIDYL)-1-BUTANONE [64091-50-5], Dose [Inhibitor]: 80 MMOL/KG IN DIET FOR 53 WK BEGINNING 1 WK PRIOR TO FIRST CARCINOGEN DOSE (STUDY DURATION: 53 WK), Route [Inhibitor]: ORAL, Species: MOUSE, Strain/Sex: A/J/FEMALE, Target Tissue: Type of Lesion: LUNG: ADENOMA OR ADENOCARCINOMA, Dose [Carcinogen]: 10 UMOL ONCE 1 WK POST FIRST INHIBITOR DOSE (STUDY DURATION: 53 WK), Promoter: NONE): 100%, 97%, 3%, not significant; tumour outcome (control, treated, inhibition, significance) (Carcinogen: 4-(METHYLNITROSAMINO)-1-(3-PYRIDYL)-1-BUTANONE [64091-50-5], Dose [Inhibitor]: 160 MMOL/KG IN DIET FOR 17 WK BEGINNING 1 WK PRIOR TO FIRST CARCINOGEN DOSE (STUDY DURATION: 17 WK), Route [Inhibitor]: ORAL, Species: MOUSE, Strain/Sex: A/J/FEMALE, Target Tissue: Type of Lesion: LUNG: ADENOMA, Dose [Carcinogen]: 10 UMOL ONCE 1 WK POST FIRST INHIBITOR DOSE (STUDY DURATION: 17 WK), Promoter: NONE): 100%, 100%, 0%, not significant; tumour outcome (control, treated, inhibition, significance) (Carcinogen: 4-(METHYLNITROSAMINO)-1-(3-PYRIDYL)-1-BUTANONE [64091-50-5], Dose [Inhibitor]: 160 MMOL/KG IN DIET FOR 53 WK BEGINNING 1 WK PRIOR TO FIRST CARCINOGEN DOSE (STUDY DURATION: 53 WK), Route [Inhibitor]: ORAL, Species: MOUSE, Strain/Sex: A/J/FEMALE, Target Tissue: Type of Lesion: LUNG: ADENOMA OR ADENOCARCINOMA, Dose [Carcinogen]: 10 UMOL ONCE 1 WK POST FIRST INHIBITOR DOSE (STUDY DURATION: 53 WK), Promoter: NONE): 100%, 97%, 3%, not significant; tumour outcome (control, treated, inhibition, significance) (Carcinogen: POTASSIUM 1-METHYL-7-[2-(5-NITRO-2-FURYL)VINYL]-4-OXO-1,4-DIHYDRO-1,8- NAPHTHYRIDINE-3-CARBOXYLATE, 29676-95-7, Dose [Inhibitor]: 1% IN DIET FOR 39 WK STARTING AT COMPLETION OF CARCINOGEN TREATMENT (STUDY DURATION: 53 WK), Route [Inhibitor]: ORAL, Species: MOUSE, Strain/Sex: ICR/MALE, Target Tissue: Type of Lesion: FORESTOMACH: SQUAMOUS CELL CARCINOMA, Dose [Carcinogen]: 0.012% DIET FOR 14 WK, Promoter: NONE USED): 7/30 (23%), 1/32 (3%), 87%, p<0.05; tumour outcome (control, treated, inhibition, significance) (Carcinogen: POTASSIUM 1-METHYL-7-[2-(5-NITRO-2-FURYL)VINYL]-4-OXO-1,4-DIHYDRO-1,8- NAPHTHYRIDINE-3-CARBOXYLATE, 29676-95-7, Dose [Inhibitor]: 1% IN DIET FOR 39 WK STARTING AT COMPLETION OF CARCINOGEN TREATMENT (STUDY DURATION: 53 WK), Route [Inhibitor]: ORAL, Species: MOUSE, Strain/Sex: ICR/MALE, Target Tissue: Type of Lesion: FORESTOMACH: SQUAMOUS CELL PAPILLOMA, Dose [Carcinogen]: 0.012% IN DIET FOR 14 WK, Promoter: NONE USED): 13/30 (43%), 0/32 (0%), 100%, not significant; tumour outcome (control, treated, inhibition, significance) (Carcinogen: POTASSIUM 1-METHYL-7-[2-(5-NITRO-2-FURYL)VINYL]-4-OXO-1,4-DIHYDRO-1,8- NAPHTHYRIDINE-3-CARBOXYLATE, 29676-95-7, Dose [Inhibitor]: 1% IN DIET FOR 39 WK STARTING AT COMPLETION OF CARCINOGEN TREATMENT (STUDY DURATION: 53 WK), Route [Inhibitor]: ORAL, Species: MOUSE, Strain/Sex: ICR/MALE, Target Tissue: Type of Lesion: LUNG: ADENOCARCINOMA, Dose [Carcinogen]: 0.012% IN DIET FOR 14 WK, Promoter: NONE USED): 2/30 (7%), 11/32 (34%), -386%, not significant; tumour outcome (control, treated, inhibition, significance) (Carcinogen: POTASSIUM 1-METHYL-7-[2-(5-NITRO-2-FURYL)VINYL]-4-OXO-1,4-DIHYDRO-1,8- NAPHTHYRIDINE-3-CARBOXYLATE, 29676-95-7, Dose [Inhibitor]: 1% IN DIET FOR 39 WK STARTING AT COMPLETION OF CARCINOGEN TREATMENT (STUDY DURATION: 53 WK), Route [Inhibitor]: ORAL, Species: MOUSE, Strain/Sex: ICR/MALE, Target Tissue: Type of Lesion: LUNG: PAPILLOTUBULAR ADENOCARCINOMA, Dose [Carcinogen]: 0.012% IN DIET FOR 14 WK, Promoter: NONE USED): 27/30 (90%), 0/32 (0%), 100%, p<0.01; tumour outcome (control, treated, inhibition, significance) (Carcinogen: THIOACETAMIDE, 62-55-5, Dose [Inhibitor]: 1% IN DIET FOR 48 WK GIVEN POST CARCINOGEN (STUDY DURATION: 88 WK), Route [Inhibitor]: ORAL, Species: MOUSE, Strain/Sex: ICR/MALE, Target Tissue: Type of Lesion: LIVER: HEPATOCELLULAR CARCINOMA, Dose [Carcinogen]: 0.035% IN DIET FOR 40 WK, Promoter: NONE USED): 11/24 (46%), 0/15 (0%), 100%, p<0.01

Q: For `CC(C)c1cc(C(=O)O)c(O)c(C(C)C)c1`, which “tumour outcome (control, treated, inhibition, significance)” value (Carcinogen: BENZO[A]PYRENE, 50-32-8, Dose [Inhibitor]: 2000 NMOL IN 0.2 ML ACETONE APPLIED ONCE TO DORSAL SKIN 15 MIN PRIOR TO CARCINOGEN DOSE (STUDY DURATION: 20 WK), Route [Inhibitor]: DERMAL, Species: MOUSE, Strain/Sex: SENCAR/FEMALE, Target Tissue: Type of Lesion: SKIN: PAPILLOMA, Dose [Carcinogen]: 200 NMOL IN 0.2 ML ACETONE ONCE) is on record?
A: Its value is 97%, 96%, 0.3%, not significant.
